Reference: PubChem BioAssay (NCI)
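Cells were grown in 96-well plates and exposed to each compound for 48 hours at five concentrations; endpoints were interpolated linearly between bracketing concentrations, or set to the highest concentration if not reached. The concentration for 50% growth inhibition is given as GI50. TGI denotes the concentration required for complete inhibition of growth.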 Where a SMILES comes first, the peptide text is derived from it. [ ]: non-standard residue; d: D form.

What was measured:
Experiment in all cases: DTP human tumour cell line panel, 48 h
DMS 273 small cell lung = tested on: DMS 273 small cell lung
HOP-18 NSCLC = tested on: HOP-18 NSCLC
LXFL 529 NSCLC = tested on: LXFL 529 NSCLC
M19-MEL melanoma = tested on: M19-MEL melanoma
SNB-78 CNS = tested on: SNB-78 CNS
XF 498 CNS = tested on: XF 498 CNS
DLD-1 colon = tested on: DLD-1 colon
RXF-631 renal = tested on: RXF-631 renal
MDA-N = tested on: MDA-N

SMILES	TGI (DMS 273 small cell lung)	TGI (HOP-18 NSCLC)	TGI (LXFL 529 NSCLC)	TGI (M19-MEL melanoma)	TGI (SNB-78 CNS)	TGI (XF 498 CNS)	TGI (DLD-1 colon)	TGI (RXF-631 renal)	TGI (MDA-N)	also measured
O=C(CCc1cc(-c2ccc(F)cc2)n[nH]1)N(Cc1ccccc1)Cc1ccccc1	> 100 µM	> 100 µM	> 100 µM	> 100 µM	> 100 µM	> 100 µM	–	–	–	–
COc1cc(CCc2ccncc2)cc(OC)c1OC	> 100 µM	> 100 µM	> 100 µM	> 100 µM	> 100 µM	> 100 µM	> 100 µM	> 100 µM	–	–
O=C1C(=Cc2ccc(F)cc2)C(=O)c2ccccc21	> 100 µM	–	> 100 µM	> 100 µM	–	> 100 µM	> 100 µM	> 100 µM	–	–
CCN(CC)CCNc1ccc([N+](=O)[O-])c2nc3ccc(OC)cc3c(N)c12	–	–	–	–	–	–	–	–	3.26 µM	–
NC1=C(O)C(=O)C(c2c[nH]c3ccc(OCc4ccccc4)cc23)O1 (configuration not stated)	–	–	–	–	–	–	–	–	> 100 µM	–
COc1ccc2c(c1)[nH]c1c3ccc(OC)cc3oc(=O)c21	–	–	–	–	–	–	–	–	> 100 µM	–
CN1CCN(c2nc3cc(F)ccc3n3cccc23)CC1	–	–	–	–	–	–	–	–	> 100 µM	–
CC1/C(=N/O)CC(c2ccccc2)N(N=O)C1c1ccccc1 (configuration not stated)	–	–	–	–	–	–	–	–	> 100 µM	–
C1CC[N-]CC1.CC(=N\O)/C(C)=N/O.CC(=N\O)/C(C)=N/O.C[CH-]C(C)O.[Co+2]	–	–	–	–	–	–	–	–	77 µM	GI50 (MDA-N): 26.6 µM
Cc1c(Cl)cccc1NC(=O)C(=O)c1c(O)c2ccc(O)cc2oc1=O	> 100 µM	> 100 µM	> 100 µM	> 100 µM	> 100 µM	> 100 µM	> 100 µM	–	–	–
CCCC(=O)OC(OC(=O)CCC)c1ccc([N+](=O)[O-])o1	–	–	–	–	–	–	–	–	46.3 µM	–
CC(=O)[O][Hg][c]1s[c]([Hg][O]C(C)=O)[c]([Hg][O]C(C)=O)[c]1[Hg][O]C(C)=O	> 100 µM	–	9.72 µM	> 100 µM	–	–	–	–	–	GI50 (DMS 273 small cell lung): 3.6 µM; GI50 (LXFL 529 NSCLC): 1.79 µM; GI50 (M19-MEL melanoma): 3.99 µM; GI50 (SNB-78 CNS): 1.42 µM
Oc1ccc(O)c(-n2cccn2)c1-n1cccn1	> 100 µM	–	> 100 µM	> 100 µM	> 100 µM	> 100 µM	> 100 µM	–	–	–
C=CCO[C@H]1CC[C@@]2(C)C(CC[C@]3(C)C2CC=C2[C@@H]4[C@@H](C)C(C)CC[C@]4(C(=O)O)CCC23C)C1(C)C (some centres not stated)	–	37.1 µM	26.9 µM	35.7 µM	35.4 µM	20.2 µM	32.1 µM	28.9 µM	–	–
Cc1ccc(C)c(NC(=O)C(=O)Nn2c(=S)[nH]c3ccccc3c2=O)c1	> 100 µM	> 100 µM	> 100 µM	–	> 100 µM	–	> 100 µM	> 100 µM	–	–
C[C@H]1CC[C@@H]2[C@@H](C)[C@H]3[C@H](C[C@H]4[C@@H]5CC=C6C[C@@H](O)CC[C@]6(C)[C@H]5CC[C@]34C)N2C1	–	–	–	–	–	–	–	–	> 100 µM	–
N#C/C(=C1\OC(N)=C(c2ccc(Cl)cc2)C1=O)c1ccc(Cl)cc1	26.7 µM	30.8 µM	24.3 µM	31.4 µM	31.4 µM	–	30.9 µM	–	–	–
CN(C)Cc1cc(C(C)(C)C)cc(CN(C)C)c1O	–	–	–	–	–	–	–	–	> 100 µM	–
CC/C(C)=C1\CCC(CN(C)C)C1=O (configuration not stated)	33.3 µM	32.2 µM	29.9 µM	32.6 µM	54.8 µM	34.7 µM	30.5 µM	34.4 µM	–	–
CN1C/C(=C\c2ccc(C(=O)O)cc2)C(=O)/C(=C/c2ccc(C(=O)O)cc2)C1	> 100 µM	> 100 µM	> 100 µM	> 100 µM	> 100 µM	> 100 µM	> 100 µM	> 100 µM	–	–
C=C1C(=O)OC2(C)CCC1CC1OC1(C)CCC=C(C)CCC2O (configuration not stated)	–	–	–	–	–	–	–	–	97.4 µM	–
COC(=N)CCCl	–	–	–	–	–	–	–	–	> 100 µM	–
N/C(CC(=O)NOC(=O)c1ccccc1)=N/OC(=O)c1ccccc1	–	–	–	–	–	–	–	–	> 100 µM	–
O/N=C1\C(=C\c2ccc3c(c2)OCCO3)CCCC1C(NO)c1ccc2c(c1)OCCO2 (configuration not stated)	43 µM	> 100 µM	62.7 µM	52.5 µM	> 100 µM	–	> 100 µM	> 100 µM	–	–
CC(C)OP(=O)(OC(C)C)/C(C#N)=C/c1c[nH]c2ccccc12	–	–	–	–	–	–	–	–	> 100 µM	–
C/C(=N\Nc1n[nH]c(=S)n1N)c1c(O)cc(C)oc1=O	–	> 100 µM	> 100 µM	> 100 µM	> 100 µM	–	> 100 µM	–	–	–

SMILES	TGI (DMS 273 small cell lung)	TGI (HOP-18 NSCLC)	TGI (LXFL 529 NSCLC)	TGI (M19-MEL melanoma)	TGI (SNB-78 CNS)	TGI (XF 498 CNS)	TGI (DLD-1 colon)	TGI (RXF-631 renal)	TGI (MDA-N)	also measured
Cc1ccc([N+]2=NC(c3ccccc3)=NN(c3ccccc3)C2)cc1	> 100 µM	–	> 100 µM	> 100 µM	–	> 100 µM	> 100 µM	–	–	–
N#CC(C#N)C(c1ccccc1)c1ccccc1	> 100 µM	> 100 µM	> 100 µM	–	> 100 µM	–	> 100 µM	> 100 µM	–	–
O=C1CC2OCC=C3CN4CCC5(C(=O)O)C(N1)C2C3CC45 (configuration not stated)	–	–	–	–	–	–	–	–	> 100 µM	–
CSCC[C@H](NC(=O)[C@@H](N)CC(N)=O)C(=O)N[C@@H](Cc1c[nH]c2ccccc12)C(=O)N[C@@H](CCC(N)=O)C(=O)N[C@@H](CCC(=O)O)C(=O)N[C@H](C(=O)NCC(=O)N[C@@H](CCCCN)C(=O)N[C@H](C)C(=O)O)C(C)C (H-NMWQEVGK[dA]-OH)	–	–	–	–	–	–	–	–	> 100 µM	–
CC(CC(=O)Nc1ccc(NC(=O)CC(C)N=NC(N)=O)cc1)N=NC(N)=O (configuration not stated)	> 100 µM	> 100 µM	> 100 µM	> 100 µM	–	> 100 µM	> 100 µM	–	–	–
COC1CC(n2cc(F)c(N)nc2=O)OC1CO (configuration not stated)	> 100 µM	> 100 µM	> 100 µM	–	> 100 µM	> 100 µM	> 100 µM	> 100 µM	–	–
Cc1c(C2CCSc3ccccc3N2)sc2ccccc12 (configuration not stated)	–	–	–	–	–	–	–	–	> 100 µM	–
COC(=O)Nc1nc2ccc(C(=O)c3cccs3)cc2[nH]1	> 100 µM	> 100 µM	18.6 µM	> 100 µM	> 63.1 µM	0.0934 µM	> 100 µM	> 61.8 µM	2.57 µM	–
NC1=Nc2ccccc2Sc2ccccc21	> 100 µM	> 100 µM	–	> 100 µM	> 100 µM	> 100 µM	> 100 µM	–	–	–
CN(C)C(=S)/N=c1\ss/c(=N\S(=O)(=O)c2ccccc2)n1C	> 100 µM	> 100 µM	> 100 µM	> 100 µM	> 100 µM	> 100 µM	> 100 µM	–	–	–
NC(=O)c1nc(-c2ccc(Cl)c(Cl)c2)nc2ccccc12	> 24.9 µM	> 100 µM	> 100 µM	> 100 µM	> 100 µM	> 100 µM	> 100 µM	–	–	–
CCOc1ccccc1N=Cc1c2ccccc2cc2ccccc12	–	–	–	–	–	–	–	–	53.3 µM	–
CCN1CCC(O)(/C=C/c2ccccc2)C(C(=O)/C=C/c2ccccc2)C1 (configuration not stated)	3.27 µM	18.1 µM	3.56 µM	4.18 µM	11.5 µM	18.5 µM	8.22 µM	15 µM	–	–
COC(=O)C(/C(=N\O)C(=O)Nc1ccc(Br)cc1)c1nc2ccccc2[nH]c1=O (configuration not stated)	> 100 µM	> 100 µM	80.5 µM	68.2 µM	> 100 µM	–	> 100 µM	> 100 µM	–	–
C#C[C@@H](CCCC)OC(=O)N[C@H](C)c1ccccc1	> 100 µM	> 100 µM	> 100 µM	> 100 µM	> 100 µM	> 100 µM	> 100 µM	> 100 µM	–	–
O=C1C(OC(=O)c2ccccc2)=C(c2ccc(O)cc2)C(=O)C(OC(=O)c2ccccc2)=C1c1ccc(O)cc1	–	–	–	–	–	–	–	–	> 100 µM	–
COC(=O)C(=O)C(C#N)c1c(Cl)cccc1Cl (configuration not stated)	> 100 µM	–	> 100 µM	> 100 µM	> 100 µM	> 100 µM	> 100 µM	> 100 µM	–	–
Nc1ccn(C2CC3OCC3O2)c(=O)n1 (configuration not stated)	–	–	–	–	–	–	–	–	> 100 µM	–
C[C@H]1CCC2C(OC(=O)[C@@H]2CN(C)C)[C@]2(C)C(=O)C=CC12O (some centres not stated)	18.8 µM	38.9 µM	12.4 µM	20.3 µM	–	–	11 µM	3.11 µM	13.3 µM	–
O=[N+]([O-])c1ccc2nc(-c3ccc(Cl)cc3)[nH]c2c1	–	–	–	–	–	–	–	–	51.1 µM	–
O=C1/C(=C/c2ccc(O)cc2)Oc2ccccc21	–	–	–	–	–	–	–	–	> 100 µM	–
CC1=CC(=O)N2C(OC[C@@H]2c2ccccc2)O1 (some centres not stated)	–	> 100 µM	> 100 µM	> 100 µM	–	> 100 µM	> 100 µM	–	–	–
Cc1nc(-n2nc(-c3ccccc3)cc2-c2ccccc2)sc1C(=O)/C=C/c1cccc([N+](=O)[O-])c1	83.1 µM	24.5 µM	–	30.4 µM	> 100 µM	–	24.3 µM	–	–	–
CC1OC(=O)N2CCC=CC12 (configuration not stated)	> 100 µM	> 100 µM	> 100 µM	> 100 µM	> 100 µM	> 100 µM	> 100 µM	> 100 µM	–	–
COc1cc([C@@H]2c3cc4c(cc3[C@@H](NCc3cccc(F)c3)C3COC(=O)[C@@H]32)OCO4)cc(OC)c1O (some centres not stated)	14.3 µM	> 65 µM	> 65 µM	–	57.7 µM	–	> 65 µM	–	–	–
